pIC50: −log10 of the molar value.
What was measured:
[1] = Clearance in Wistar rat at 1 mg/kg, iv; type: ADME, organism-based; parameters: dose 1 mg/kg, route intravenous; conditions: in vivo
[2] = Half life in Wistar rat at 1 mg/kg, iv; type: ADME, organism-based; parameters: dose 1 mg/kg, route intravenous; conditions: in vivo
[3] = Oral bioavailability in Wistar rat at 3 mg/kg; type: ADME, organism-based; conditions: in vivo
[4] = Ratio of drug level in brain to plasma of Wistar rat; type: ADME
Dipeptidyl peptidase 4 = Dipeptidyl peptidase 4 (Homo sapiens, UniProt P27487); assay: Inhibition of DPP4
Rattus norvegicus [5] = assay: Reduction of blood glucose level in po dosed Zucker fatty (fa/fa) rat administered 2 hrs before glucose challenge measured after 40 mins glucose challenge by oral glucose tolerance test; type: functional, organism-based
[6] = Volume of distribution at steady state in Wistar rat at 1 mg/kg, iv; type: ADME, organism-based; parameters: dose 1 mg/kg, route intravenous; conditions: in vivo, read-out: Vdss
[7] = Distribution coefficient, log D at pH 7.4; type: physicochemical; conditions: octanol/water
Phospholipidosis = assay: Minimal effective concentration for in vitro drug-induced phospholipidosis in fibroblasts; type: ADME, cell-based; conditions: fibroblast
Rattus norvegicus [8] = assay: Reduction of blood glucose level in Zucker fatty (fa/fa) rat at 0.3 mg/kg, po administered 2 hrs before glucose challenge measured after 40 mins glucose challenge by oral glucose tolerance test; type: functional; parameters: scale not given: the % may be the effect or the level left
[9] = Mutagenic activity in Salmonella Typhimurium; type: toxicity; conditions: salmonella enterica subsp. enterica serovar typhimurium

Dipeptidyl peptidase 4, sequence (P27487 whole entry): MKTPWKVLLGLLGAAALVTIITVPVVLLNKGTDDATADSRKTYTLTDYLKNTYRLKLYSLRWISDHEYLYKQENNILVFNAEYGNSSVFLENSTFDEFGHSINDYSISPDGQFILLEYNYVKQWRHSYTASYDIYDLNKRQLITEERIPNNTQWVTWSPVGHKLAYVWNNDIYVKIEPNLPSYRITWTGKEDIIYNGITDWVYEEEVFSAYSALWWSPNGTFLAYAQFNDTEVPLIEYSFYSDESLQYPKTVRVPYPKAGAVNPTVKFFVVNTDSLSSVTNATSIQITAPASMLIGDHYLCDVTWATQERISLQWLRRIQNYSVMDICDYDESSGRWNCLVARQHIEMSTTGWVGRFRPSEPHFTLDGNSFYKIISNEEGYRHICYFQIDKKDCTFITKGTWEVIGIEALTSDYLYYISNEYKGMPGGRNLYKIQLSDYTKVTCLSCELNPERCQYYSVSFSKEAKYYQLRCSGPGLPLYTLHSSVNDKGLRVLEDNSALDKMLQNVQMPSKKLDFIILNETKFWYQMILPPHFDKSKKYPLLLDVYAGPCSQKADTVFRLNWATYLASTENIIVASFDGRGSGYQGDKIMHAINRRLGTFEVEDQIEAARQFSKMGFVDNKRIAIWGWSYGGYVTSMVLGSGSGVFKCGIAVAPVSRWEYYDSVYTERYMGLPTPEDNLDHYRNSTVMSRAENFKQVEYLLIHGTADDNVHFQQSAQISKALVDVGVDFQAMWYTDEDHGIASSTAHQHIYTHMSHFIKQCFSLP

| pIC50 (Dipeptidyl peptidase 4) | logD [7] | SMILES | also measured |
| --- | --- | --- | --- |
| 7.96 | – | COc1cc2c(cc1OC)[C@@H]1C[C@H](N)[C@@H](c3cc(C)ccn3)CN1CC2 | clearance [1]: 118 mL/min/kg; half-life [2]: 1.4 h; bioavailability [3]: 50%; Kp [4]: 0.7; Activity (Rattus norvegicus [5]): Dose-dependent effect; Vd [6]: 12 L/kg |
| – | 0.8 | COc1cc2c(cc1OC)[C@@H]1CC(N)[C@@H](c3ccccc3)CN1CC2 (mixture of isomers) | Phospholipidosis_MEC (Phospholipidosis): 5 µM |
| – | 1.3 | COc1cc2c(cc1OC)[C@@H]1CC(N)[C@@H](c3cccc(C)c3)CN1CC2 (mixture of isomers) | clearance [1]: 87 mL/min/kg; half-life [2]: 6.9 h; Phospholipidosis_MEC (Phospholipidosis): 2.5 µM; bioavailability [3]: 56%; Kp [4]: 5.8; Activity (Rattus norvegicus [8]): 41%; Vd [6]: 42 L/kg |
| 7.42 | 1.8 | COc1cc2c(cc1OC)[C@@H]1CC(N)[C@@H](c3cccc(C4CC4)c3)CN1CC2 (mixture of isomers) | – |
| – | 1.6 | COc1cc2c(cc1OC)[C@@H]1CC(N)[C@@H](c3cccc(CF)c3)CN1CC2 (mixture of isomers) | – |
| 8.92 | 0.1 | COc1cc2c(cc1OC)[C@@H]1CC(N)[C@@H](c3cc(CF)ccn3)CN1CC2 (mixture of isomers) | Activity [9]: Toxic |
| 8.77 | 1.6 | COc1cc2c(cc1OC)[C@@H]1CC(N)[C@@H](c3cc(C)ccc3C)CN1CC2 (mixture of isomers) | – |

Further lines, the molecule ahead of its results:

| SMILES | pIC50 (Dipeptidyl peptidase 4) | logD [7] | also measured |
| --- | --- | --- | --- |
| COc1cc2c(cc1OC)[C@H]1C[C@@H](N)[C@H](c3cc(C)ccn3)CN1CC2 | 4.28 | – | – |
| COc1cc2c(cc1OC)[C@@H]1CC(N)[C@@H](c3cccc(Cl)c3)CN1CC2 (mixture of isomers) | – | 1.7 | – |
| COc1cc2c(cc1OC)[C@@H]1CC(N)[C@@H](c3cccc(C(C)C)c3)CN1CC2 (mixture of isomers) | 5.26 | 2 | – |
| CCc1cccc([C@H]2CN3CCc4cc(OC)c(OC)cc4[C@@H]3CC2N)c1 (mixture of isomers) | 7.21 | 1.7 | – |
| COc1cc2c(cc1OC)[C@@H]1CC(N)[C@@H](c3cc(C)ccn3)CN1CC2 (mixture of isomers) | 7.72 | 0.3 | Phospholipidosis_MEC (Phospholipidosis): 15 µM |
